# Measurements from PMC6277767, “Broad and Region-Specific Impacts of the Synthetic Cannabinoid CP 55,940 in Adolescent and Adult Female Mouse Brains” (Frontiers in Molecular Neuroscience, 2018).
# Tested on: CD1 female mouse brain lipidome
# Experiment: Brain-region lipid levels (HPLC/MS/MS lipidomics) 2 h after single i.p. 3 mg/kg CP 55,940 vs vehicle
# Type: in vivo
# Description: The Bloomington Institutional Animal Care and Use Committee of Indiana University reviewed and approved the animal procedures. Female mice from the CD1 strain were utilized to match our study examining THC’s effects on the brain lipidome ([Leishman et al., 2018]). Mice were given a single i.p. injection of either 3 mg/kg CP or 1:1:18 cremophor:ethanol:saline vehicle (please refer to the section “3 mg/kg CP Is Relevant for Synthetic Cannabinoid Abuse and Has Stronger Effects on the Female Mouse Brain Lipidome During Adolescence” for a justification of dose and use of female mice). Three different age groups were given injections: PND 35 and PND 50 adolescents, and adult mice (PND 113). At least eight mice in each age group received CP and at least eight received vehicle. Matching the THC study time course ([Leishman et al., 2018]), mice were sacrificed via rapid decapitation 2 h after injection. Brains were immediately removed and flash-frozen in liquid nitrogen, and then stored at -80°C until dissections were performed. Brains were dissected on an ice-cold dissection plate into the following regions: STR, HIPP, CER, THAL, CTX, HYP, MID, and STEM. These abbreviations for these brain areas will be used exclusively when discussing the results generated by these specific dissections. Each dissected area was immediately placed in liquid nitrogen and then stored at -80°C until used for lipid extraction.
# Tissue extracts were performed as previously described ([Bradshaw et al., 2006]; [Stuart et al., 2013]; [Raboune et al., 2014]; [Leishman et al., 2016a],[b], [2017], [2018]). First, samples were shock frozen in liquid nitrogen, weighed, and transferred to a centrifuge tube. The mass of the largest sample was multiplied by 50 to determine how many milliliters of HPLC-grade methanol (Fisher, Fair Lawn, NJ, United States) to add. Then, samples were spiked with 500 pmol deuterium-labeled NAGly (d8NAGly; Cayman Chemical, Ann Arbor, MI, United States). Samples were placed on ice in darkness for 2 h then individually homogenized and centrifuged at 19,000 × g for 20 min at 20°C. Supernatants were diluted with HPLC water (purified in house) to make a solution of 75% water, 25% supernatant. Lipids were partially purified on C18 solid phase extraction columns (Agilent, Palo Alto, CA, United States). A series of four elutions with 1.5 mL of 60%, 75%, 85%, and 100% methanol were collected ([Stuart et al., 2013]; [Leishman et al., 2016a],[b], [2018]).
# As previously described ([Bradshaw et al., 2006]; [Tan et al., 2006]; [Smoum et al., 2010]; [Stuart et al., 2013]; [Tortoriello et al., 2013]; [Raboune et al., 2014]; [Leishman et al., 2016a],[b], [2017], [2018]), samples were analyzed using an Applied Biosystems API 3000 triple quadrupole mass spectrometer with electrospray ionization (Foster City, CA, United States). Using an Agilent XDB-C18 reversed phase analytical column and optimized mobile phase gradients, 20 μL from each elution were chromatographed. Two Shimadzu 10ADvp pumps (Columbia, MD, United States) provided the pressure for gradient elution. Mobile phase A: 20% methanol, 80% water (v/v) and 1 mM ammonium acetate (Sigma, St. Louis, MO, United States). Mobile phase B: 100% methanol, 1 mM ammonium acetate. Every method run began with 0% mobile phase B, reached 100% mobile phase B flowing at 0.2 mL/min, and gradually returned to 0% mobile phase B.
# This screening library will be referred to as the lipidome when discussing data from this study. HPLC/MS/MS data were analyzed using Analyst software (Applied Biosystems) ([Bradshaw et al., 2006]; [Tan et al., 2006]; [Stuart et al., 2013]; [Tortoriello et al., 2013]; [Raboune et al., 2014]; [Leishman et al., 2016a],[b], [2017], [2018]). Chromatograms (Supplementary Figure 3) were generated by determining the retention time of analytes from the analytical column with a [M-1] or [M+1] parent peak and a fragmentation peak corresponding to the programmed values. […]
# [1] = PND 35 midbrain, 3mg/kg, one-way ANOVA
smiles,measurement,setting,value
"CCCCCCC(C)(C)c1ccc([C@@H]2C[C@H](O)CC[C@H]2CCCO)c(O)c1 [CP 55,940]",N-docosahexaenoyl methionine: Magnitude (x Veh level),"PND 35 midbrain, 3mg/kg",0.77 x Veh level
same,N-docosahexaenoyl serine: Magnitude (x Veh level),"PND 35 midbrain, 3mg/kg",0.77 x Veh level
same,N-docosahexaenoyl tyrosine: Magnitude (x Veh level),"PND 35 midbrain, 3mg/kg",0.79 x Veh level
same,N-docosahexaenoyl valine: Magnitude (x Veh level),"PND 35 midbrain, 3mg/kg",1.67 x Veh level
same,N-linoleoyl ethanolamine: Magnitude (x Veh level),"PND 35 midbrain, 3mg/kg",1.24 x Veh level
same,N-oleoyl GABA: Magnitude (x Veh level),"PND 35 midbrain, 3mg/kg",0.81 x Veh level
same,N-oleoyl ethanolamine: Magnitude (x Veh level),"PND 35 midbrain, 3mg/kg",0.85 x Veh level
same,N-oleoyl phenylalanine: Magnitude (x Veh level),"PND 35 midbrain, 3mg/kg",1.11 x Veh level
same,N-oleoyl valine: Magnitude (x Veh level),"PND 35 midbrain, 3mg/kg",1.48 x Veh level
same,N-palmitoyl leucine: Magnitude (x Veh level),"PND 35 midbrain, 3mg/kg",1.40 x Veh level
same,N-palmitoyl phenylalanine: Magnitude (x Veh level),"PND 35 midbrain, 3mg/kg",1.31 x Veh level
same,N-palmitoyl valine: Magnitude (x Veh level),"PND 35 midbrain, 3mg/kg",1.83 x Veh level
same,N-stearoyl methionine: Magnitude (x Veh level),"PND 35 midbrain, 3mg/kg",1.15 x Veh level
same,N-stearoyl tyrosine: Magnitude (x Veh level),"PND 35 midbrain, 3mg/kg",0.82 x Veh level
same,N-stearoyl valine: Magnitude (x Veh level),"PND 35 midbrain, 3mg/kg",1.40 x Veh level
same,PGE2: Magnitude (x Veh level),"PND 35 midbrain, 3mg/kg",1.15 x Veh level
same,PGF2α: Magnitude (x Veh level),"PND 35 midbrain, 3mg/kg",1.22 x Veh level
same,phoshoLEA: Magnitude (x Veh level),"PND 35 midbrain, 3mg/kg",1.41 x Veh level
same,2-linoleoyl glycerol: Direction (rel to Veh),[1],↓
same,6-ketoPGF1α: Direction (rel to Veh),[1],↓
same,Arachidonic acid: Direction (rel to Veh),[1],↓
same,N-arachidonoyl GABA: Direction (rel to Veh),[1],↓
same,N-arachidonoyl alanine: Direction (rel to Veh),[1],↓
same,N-arachidonoyl glycine: Direction (rel to Veh),[1],↓
same,N-arachidonoyl serine: Direction (rel to Veh),[1],↓
same,N-arachidonoyl taurine: Direction (rel to Veh),[1],↓
same,N-arachidonoyl tyrosine: Direction (rel to Veh),[1],↓
same,N-docosahexaenoyl GABA: Direction (rel to Veh),[1],↓
same,N-docosahexaenoyl alanine: Direction (rel to Veh),[1],↓
same,N-docosahexaenoyl glycine: Direction (rel to Veh),[1],↓
same,N-docosahexaenoyl leucine: Direction (rel to Veh),[1],↑
same,N-docosahexaenoyl methionine: Direction (rel to Veh),[1],↓
same,N-docosahexaenoyl serine: Direction (rel to Veh),[1],↓
same,N-docosahexaenoyl tyrosine: Direction (rel to Veh),[1],↓
same,N-docosahexaenoyl valine: Direction (rel to Veh),[1],↑
same,N-linoleoyl ethanolamine: Direction (rel to Veh),[1],↑
same,N-oleoyl GABA: Direction (rel to Veh),[1],↓
same,N-oleoyl ethanolamine: Direction (rel to Veh),[1],↓
same,N-oleoyl phenylalanine: Direction (rel to Veh),[1],↑
same,N-oleoyl valine: Direction (rel to Veh),[1],↑
same,N-palmitoyl leucine: Direction (rel to Veh),[1],↑
same,N-palmitoyl phenylalanine: Direction (rel to Veh),[1],↑
same,N-palmitoyl valine: Direction (rel to Veh),[1],↑
same,N-stearoyl methionine: Direction (rel to Veh),[1],↑
same,N-stearoyl tyrosine: Direction (rel to Veh),[1],↓
same,N-stearoyl valine: Direction (rel to Veh),[1],↑
same,PGE2: Direction (rel to Veh),[1],↑
same,PGF2α: Direction (rel to Veh),[1],↑
same,phoshoLEA: Direction (rel to Veh),[1],↑
same,2-arachidonoyl-sn-glycerol mean level,PND 35 striatum,8.26E-11 moles per gram
same,2-linoleoyl-sn-glycerol mean level,PND 35 striatum,6.79E-11 moles per gram
same,2-oleoyl-sn-glycerol mean level,PND 35 striatum,6.52E-10 moles per gram
same,2-palmitoyl-sn-glycerol mean level,PND 35 striatum,3.66E-10 moles per gram
same,6-ketoPGF1α mean level,PND 35 striatum,5.31E-12 moles per gram
same,Arachidonic acid mean level,PND 35 striatum,1.87E-09 moles per gram
same,Linoleic acid mean level,PND 35 striatum,4.78E-10 moles per gram
same,N- stearoyl valine mean level,PND 35 striatum,4.54E-13 moles per gram
same,N-arachidonoyl GABA mean level,PND 35 striatum,7.34E-12 moles per gram
same,N-arachidonoyl alanine mean level,PND 35 striatum,7.95E-12 moles per gram
same,N-arachidonoyl ethanolamine mean level,PND 35 striatum,1.25E-11 moles per gram
same,N-arachidonoyl glycine mean level,PND 35 striatum,2.49E-11 moles per gram
same,N-arachidonoyl phenylalanine mean level,PND 35 striatum,5.08E-13 moles per gram
same,N-arachidonoyl serine mean level,PND 35 striatum,2.14E-12 moles per gram
same,N-arachidonoyl taurine mean level,PND 35 striatum,4.32E-11 moles per gram
same,N-arachidonoyl tyrosine mean level,PND 35 striatum,3.18E-13 moles per gram
same,N-docosahexaenoyl GABA mean level,PND 35 striatum,7.6E-13 moles per gram
same,N-docosahexaenoyl alanine mean level,PND 35 striatum,3E-12 moles per gram
same,N-docosahexaenoyl ethanolamine mean level,PND 35 striatum,1.6E-11 moles per gram
same,N-docosahexaenoyl glycine mean level,PND 35 striatum,1.04E-11 moles per gram
same,N-docosahexaenoyl leucine mean level,PND 35 striatum,5.34E-13 moles per gram
same,N-docosahexaenoyl phenylalanine mean level,PND 35 striatum,5.57E-13 moles per gram
same,N-docosahexaenoyl serine mean level,PND 35 striatum,9.97E-12 moles per gram
same,N-linoleoyl alanine mean level,PND 35 striatum,1.57E-12 moles per gram
same,N-linoleoyl ethanolamine mean level,PND 35 striatum,3.02E-11 moles per gram
same,N-linoleoyl glycine mean level,PND 35 striatum,1.9E-12 moles per gram
same,N-linoleoyl serine mean level,PND 35 striatum,4.58E-11 moles per gram
same,N-oleoyl GABA mean level,PND 35 striatum,1.45E-12 moles per gram
same,N-oleoyl alanine mean level,PND 35 striatum,6.67E-12 moles per gram
same,N-oleoyl ethanolamine mean level,PND 35 striatum,6.1E-11 moles per gram
same,N-oleoyl glycine mean level,PND 35 striatum,1.1E-11 moles per gram
same,N-oleoyl leucine mean level,PND 35 striatum,1.08E-12 moles per gram
same,N-oleoyl methionine mean level,PND 35 striatum,9.72E-13 moles per gram
same,N-oleoyl phenylalanine mean level,PND 35 striatum,6.72E-13 moles per gram
same,N-oleoyl serine mean level,PND 35 striatum,2.35E-10 moles per gram
same,N-oleoyl tyrosine mean level,PND 35 striatum,1.91E-13 moles per gram
same,N-oleoyl valine mean level,PND 35 striatum,3.53E-13 moles per gram
same,N-palmitoyl GABA mean level,PND 35 striatum,3.96E-12 moles per gram
same,N-palmitoyl alanine mean level,PND 35 striatum,1.47E-11 moles per gram
same,N-palmitoyl ethanolamine mean level,PND 35 striatum,3.18E-11 moles per gram
same,N-palmitoyl glycine mean level,PND 35 striatum,2.93E-11 moles per gram
same,N-palmitoyl leucine mean level,PND 35 striatum,2.54E-12 moles per gram
same,N-palmitoyl methionine mean level,PND 35 striatum,1.86E-12 moles per gram
same,N-palmitoyl phenylalanine mean level,PND 35 striatum,1.48E-12 moles per gram
same,N-palmitoyl proline mean level,PND 35 striatum,1.03E-12 moles per gram
same,N-palmitoyl serine mean level,PND 35 striatum,3.33E-11 moles per gram
same,N-palmitoyl tryptophan mean level,PND 35 striatum,2.09E-13 moles per gram
same,N-palmitoyl tyrosine mean level,PND 35 striatum,3.84E-13 moles per gram
same,N-palmitoyl valine mean level,PND 35 striatum,9.76E-13 moles per gram
same,N-stearoyl GABA mean level,PND 35 striatum,3.5E-12 moles per gram
same,N-stearoyl alanine mean level,PND 35 striatum,1.12E-11 moles per gram
same,N-stearoyl ethanolamine mean level,PND 35 striatum,9E-12 moles per gram
same,N-stearoyl glycine mean level,PND 35 striatum,1.64E-11 moles per gram
